Values of other authors in patent US20240174620A1, “SOLID FORMS OF SAFLUFENACIL-SODIUM AND SAFLUFENACIL-POTASSIUM, PROCESS OF PREPARATION AND USE THEREOF” (ADAMA AGAN LTD., priority 2021, published 2024).
Where two headings read alike, the source gives them in different places.

Legend:
[1] = not given; remark: listed apart in the source

In the case of `CC(C)N(C)S(=O)(=O)NC(=O)c1cc(-n2c(=O)cc(C(F)(F)F)n(C)c2=O)c(F)cc1Cl` [Saflufenacil], the pKa is listed as 4.41, the “solubility in 1-octanol” value ([1]; 1-octanol, 20° C.) is listed as < 0.01 g/100 mL and the solubility in acetone ([1]; acetone, 20° C.) is listed as 27.5 g/100 mL. For the same compound, the solubility in acetonitrile ([1]; acetonitrile, 20° C.) was 19.4 g/100 mL, the “solubility in ethyl acetate” value ([1]; ethyl acetate, 20° C.) was 6.55 g/100 mL and the “solubility in isopropyl alcohol” value ([1]; isopropyl alcohol, 20° C.) was 0.25 g/100 mL. For the same compound, the solubility in methanol ([1]; methanol, 20° C.) was 2.98 g/100 mL, the solubility in n-heptane ([1]; n-heptane, 20° C.) was < 0.005 g/100 mL and the solubility in tetrahydrofurane ([1]; tetrahydrofurane, 20° C.) was 36.2 g/100 mL. The solubility in toluene ([1]; toluene, 20° C.) was 0.23 g/100 mL, the solubility in water ([1]; pH 5, 20° C.) was 0.0025 g/100 mL and the solubility in water ([1]; pH 7, 20° C.) was 0.21 g/100 mL.
